Results as given in patent publication US12590062B2, “PD-1/PD-L1 inhibitors” (Gilead Sciences, Inc., priority 2017, dated 2026).

Tests used:
[1] = target: T1, interaction between the recombinant extracellular domain (ECD) of PD-1 and native cell-bound PD-L1 (Homo sapiens, UniProt Q9NZQ7); test: CHO/PD-L1 cell capture assay; assay type: cell-based; conditions: CHO cells overexpressing PD-L1, pre-incubated 1 hr with compound, captured on biotinylated Fc-PD-1 coated plates, 75 min at room temperature
T1 construct: expressed in transfected cells
Experimental: EC50-CHO/PD-L1-Capture Assay:
Compounds were tested in a cell capture assay to determine if they can specifically block the interaction between the recombinant extracellular domain (ECD) of PD-1 and native cell-bound PD-L1. Binding affinity of stable CHO cells overexpressing PD-L1 with its cognate recombinant ligand coated on plates was measured by counting the number of ‘captured’ cells. High-capacity streptavidin- coated plates were incubated with biotylated-Fc-PD-1 for 2 hours in PBS. Unbound ligand was washed out. CHO-PD-L1 cells (resuspended in PBS pH 7.4, 0.5 mM EDTA, and 2% bovine serum albumin) were pre-incubated for 1 hr with compound, dispensed into each PD-1 ECD coated well and then incubated for 75 min at room temperature. To stop the capture assay, a fixative/staining solution (final concentrations are 1.3% glutaraldehyde and 1.67 μM Draq5) was gently added to the cells and incubated for 2 hrs at room temperature. Unbound cells were then washed out and ‘captured’ cells were enumerated using a high-content microscopy system. EC50 values were calculated from the fit of the dose-response curves to a four-parameter equation. Representative data are shown below in Table 2.

PD-1/PD-L1 interaction = target: T2, PD-1/PD-L1 interaction (Homo sapiens, UniProt Q9NZQ7); test: PD-1/PD-L1 NFAT reporter co-culture assay; assay type: cell-based; conditions: Jurkat PD-1 NFAT-luciferase cells co-cultured with aAPC-PD-L1 CHO cells, 6 hrs at 37° C.; read-out: EC50 NFAT Luciferase
T2 construct: expressed in transfected cells; host or cells: CHO cells (aAPC-PD-L1) co-cultured with Jurkat cells overexpressing PD-1 and an NFAT-luciferase reporter
Procedure, shortened: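 First, CHO cells displaying anti-CD3 antibody and PD-L1 were plated overnight. Next, compound-treated PD-1 Jurkat NFAT-luciferase reporter cells in 2% FBS RPMI were added for 6 h at 37 °C. Finally, ONE-Glo luminescence was read and EC50 values fitted with a four-parameter equation.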

PD-L1 = target: T3, PD-L1 (Homo sapiens, UniProt Q9NZQ7); test: PD-L1/PD-L1 dimerization biochemical protein-protein interaction assay (ALPHA); assay type: binding; conditions: compound-induced PD-L1 dimerization, head prints '1 nM' (0.5 nM His-tagged PD-L1 and 0.5 nM FLAG-tagged PD-L1), read-out: AC50 PDL1 Dimer Alpha 1 nM
T3 construct: determine if they can specifically dimerize the extracellular domains of PD-L1
Procedure, shortened: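 ALPHA proximity assay of compound-induced dimerization of 0.5 nM His-tagged and 0.5 nM FLAG-tagged PD-L1 extracellular domains in Hepes pH 7.4 buffer, 2 h at 25 °C. Anti-His acceptor then anti-FLAG donor beads, 60 min each; AC50 from four-parameter fit.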

PD-1/PD-L1 = PD-1/PD-L1 (Homo sapiens, UniProt Q9NZQ7); test: PD-1/PD-L1 biochemical protein-protein interaction assay (ALPHA); assay type: binding; conditions: 0.3 nM His tagged PD-L1, 2.5 nM biotinylated Fc-PD-1, 60 minutes at 25° C., read-out: IC50 PD-L1-PD-1 Alpha IC50-mono PD-L1-fcP-D1
Procedure, shortened: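 Extracellular-domain binding of His-tagged PD-L1 (0.3 nM final) to biotinylated Fc-PD-1 (2.5 nM final) was measured by ALPHA in 25 mM Hepes pH 7.4, 150 mM NaCl, 3.4 mM EDTA, 0.005% Tween 20, 0.01% BSA. After 60 min at 25° C, anti-His acceptor and streptavidin donor beads were added; IC50 from four-parameter fits.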

T2 sequence (Q9NZQ7 19-290): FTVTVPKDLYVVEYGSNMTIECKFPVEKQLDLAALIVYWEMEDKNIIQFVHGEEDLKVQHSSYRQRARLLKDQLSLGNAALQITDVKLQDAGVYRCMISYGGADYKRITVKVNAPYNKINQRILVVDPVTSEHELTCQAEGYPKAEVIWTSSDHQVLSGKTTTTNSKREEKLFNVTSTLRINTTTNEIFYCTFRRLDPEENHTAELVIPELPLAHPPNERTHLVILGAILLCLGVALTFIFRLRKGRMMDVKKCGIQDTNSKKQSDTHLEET
T1 sequence (Q9NZQ7 19-290): as above
Sequence of PD-1/PD-L1 (Q9NZQ7 19-238 limits assumed): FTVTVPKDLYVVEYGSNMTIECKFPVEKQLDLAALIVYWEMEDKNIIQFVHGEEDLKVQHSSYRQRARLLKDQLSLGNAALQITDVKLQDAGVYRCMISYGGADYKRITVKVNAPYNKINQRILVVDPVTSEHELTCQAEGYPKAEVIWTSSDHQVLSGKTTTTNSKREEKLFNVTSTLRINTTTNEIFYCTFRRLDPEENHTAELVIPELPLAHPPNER
T3 sequence (Q9NZQ7 19-238 limits assumed): as above
T3 sequence (Q9NZQ7 19-238 limits assumed): as above

COc1cc(OCc2cccc(-c3cccc(COc4cc(OCc5cncc(C#N)c5)c(CNCC(=O)O)cc4Cl)c3C)c2C)c(Cl)cc1CNCC(=O)O [Example 217, (4-((3′-((4-(((carboxymethyl)amino)methyl)-2-chloro-5-((5-cyanopyridin-3-yl)methoxy)phenoxy)methyl)-2,2′-dimethyl-[1,1′-biphenyl]-3-yl)methoxy)-5-chloro-2-methoxybenzyl)glycine]
EC50 [1]: 71.6 nM | EC50 (PD-1/PD-L1 interaction): 589 nM

COc1nc(OCc2cccc(-c3cccc(COc4nc(OC)c(CNC[C@H](O)CC(=O)O)cc4C4CC4)c3C)c2C)c(C2CC2)cc1CNC[C@H](O)CC(=O)O [Example 54, (3R,3′R)-4,4′-((((((2,2′-dimethyl-[1,1′-biphenyl]-3,3′-diyl)bis(methylene))bis(oxy))bis(5-cyclopropyl-2-methoxypyridine-6,3-diyl))bis(methylene))bis(azanediyl))bis(3-hydroxybutanoic acid)]
EC50 [1]: 233 nM | EC50 (PD-1/PD-L1 interaction): 997 nM

COc1nc(OCc2cccc(-c3cccc(COc4nc(OC)c(CN[C@@](C)(CO)C(=O)O)cc4Br)c3C)c2C)c(Br)cc1CN[C@@](C)(CO)C(=O)O [Example 45, (2S,2′S)-2,2′-((((((2,2′-dimethyl-[1,1′-biphenyl]-3,3′-diyl)bis(methylene))bis(oxy))bis(5-bromo-2-methoxypyridine-6,3-diyl))bis(methylene))bis(azanediyl))bis(3-hydroxy-2-methylpropanoic acid)]
EC50 [1]: 166 nM | EC50 (PD-1/PD-L1 interaction): 75 nM

Cc1c(COc2nc(OCc3cc(C#N)cc(C#N)c3)c(CNC[C@@H](O)CC(=O)O)cc2Cl)cccc1-c1cccc(COc2nc(OCc3cc(C#N)cc(C#N)c3)c(CNC[C@@H](O)CC(=O)O)cc2Cl)c1C [Example 122, (3S,3′S)-4,4′-((((((2,2′-dimethyl-[1,1′-biphenyl]-3,3′-diyl)bis(methylene))bis(oxy))bis(5-chloro-2-((3,5-dicyanobenzyl)oxy)pyridine-6,3-diyl))bis(methylene))bis(azanediyl))bis(3-hydroxybutanoic acid)]
EC50 [1]: 192 nM | EC50 (PD-1/PD-L1 interaction): 79 nM

COc1nc(OCc2cccc(-c3cccc(COc4nc(OC)c(CN5CC[C@@H](O)C[C@H]5C(=O)O)cc4Cl)c3C)c2C)c(Cl)cc1CN1CC[C@@H](O)C[C@H]1C(=O)O [Example 47, (2S,2′S,4R,4′R)-1,1′-(((((2,2′-dimethyl-[1,1′-biphenyl]-3,3′-diyl)bis(methylene))bis(oxy))bis(5-chloro-2-methoxypyridine-6,3-diyl))bis(methylene))bis(4-hydroxypiperidine-2-carboxylic acid)]
EC50 [1]: 226 nM | EC50 (PD-1/PD-L1 interaction): 503 nM

COc1nc(OCc2cccc(-c3cccc(COc4nc(OC)c(CN(C)CC(=O)O)cc4Cl)c3C)c2C)c(Cl)cc1CN(C)CC(=O)O [Example 76, 2,2′-((((((2,2′-dimethyl-[1,1′-biphenyl]-3,3′-diyl)bis(methylene))bis(oxy))bis(5-chloro-2-methoxypyridine-6,3-diyl))bis(methylene))bis(methylazanediyl))diacetic acid]
EC50 [1]: 83.2 nM | EC50 (PD-1/PD-L1 interaction): 1060 nM

COc1nc(OCc2cccc(-c3cccc(COc4nc(OC)c(CN(CCCC(N)=O)CC(=O)O)cc4Br)c3C)c2C)c(Br)cc1CNCCCC(N)=O [Example 118, N-(4-amino-4-oxobutyl)-N-((6-((3′-(((5-(((4-amino-4-oxobutyl)amino)methyl)-3-bromo-6-methoxypyridin-2-yl)oxy)methyl)-2,2′-dimethyl-[1,1′-biphenyl]-3-yl)methoxy)-5-bromo-2-methoxypyridin-3-yl)methyl)glycine]
EC50 [1]: 169 nM | EC50 (PD-1/PD-L1 interaction): 823 nM

Cc1c(COc2cc(OCc3cncc(C#N)c3)c(CNC[C@@H](O)CC(=O)O)cc2Cl)cccc1-c1cccc(-c2ccc(OCCNC[C@@H](O)CC(=O)O)c(C(F)(F)F)c2)c1C [Example 94, (S)-4-((4-((4″-(2-(((S)-3-carboxy-2-hydroxypropyl)amino)ethoxy)-2,2′-dimethyl-3″-(trifluoromethyl)-[1,1′:3′,1″-terphenyl]-3-yl)methoxy)-5-chloro-2-((5-cyanopyridin-3-yl)methoxy)benzyl)amino)-3-hydroxybutanoic acid]
EC50 [1]: 228 nM | EC50 (PD-1/PD-L1 interaction): 210 nM

Cc1c(COc2nc(OCc3cc(C#N)ccn3)c(CNC[C@@H](O)CC(=O)O)cc2Br)cccc1-c1cccc(COc2nc(OCc3cc(C#N)ccn3)c(CNC[C@@H](O)CC(=O)O)cc2Br)c1C [Example 148, (3S,3′S)-4,4′-((((((2,2′-dimethyl-[1,1′-biphenyl]-3,3′-diyl)bis(methylene))bis(oxy))bis(5-bromo-2-((4-cyanopyridin-2-yl)methoxy)pyridine-6,3-diyl))bis(methylene))bis(azanediyl))bis(3-hydroxybutanoic acid)]
EC50 [1]: 132 nM | EC50 (PD-1/PD-L1 interaction): 124 nM

COc1nc(OCc2cccc(-c3cccc(-c4ccc5c(c4)C[C@@H](N)C5)c3Cl)c2Cl)c(Br)cc1CNC[C@H](O)CC(=O)O [Example 548]
AC50 (PD-L1): 74.6 nM | IC50 (PD-1/PD-L1): 0.676 nM | EC50 (PD-1/PD-L1 interaction): 197 nM

C[C@@](CO)(NCc1cc(Cl)c(O[C@H]2CCc3c(-c4cccc5c4CC[C@@H]5Oc4nc(OCc5cc(C#N)cc(C#N)c5)c(CN[C@@](C)(CO)C(=O)O)cc4Cl)cccc32)nc1OCc1cc(C#N)cc(C#N)c1)C(=O)O [Example 686]
AC50 (PD-L1): 137 nM | IC50 (PD-1/PD-L1): 0.282 nM | EC50 (PD-1/PD-L1 interaction): 46 nM

C[C@@](CO)(NCc1cc(Cl)c(O[C@H]2CCc3c(-c4cccc(-c5ccc(S(N)(=O)=O)cc5)c4Cl)cccc32)nc1OCc1cncc(C#N)c1)C(=O)O [Example 671]
AC50 (PD-L1): ≥ 10000 nM | IC50 (PD-1/PD-L1): 0.159 nM | EC50 (PD-1/PD-L1 interaction): 235 nM

Cc1c(COc2cc(OCc3cncc(C#N)c3)c(CN[C@@](C)(CO)C(=O)O)cc2Cl)cccc1-c1cccc(-c2ccc(CN3CC[C@H](O)C3)cc2)c1C [Example 336, (S)-2-((5-chloro-2-((5-cyanopyridin-3-yl)methoxy)-4-((4″-(((S)-3-hydroxypyrrolidin-1-yl)methyl)-2,2′-dimethyl-[1,1′:3′,1″-terphenyl]-3-yl)methoxy)benzyl)amino)-3-hydroxy-2-methylpropanoic acid]
AC50 (PD-L1): 109 nM | IC50 (PD-1/PD-L1): 0.124 nM | EC50 (PD-1/PD-L1 interaction): 398 nM

COc1cc(-c2cccc(-c3cccc4c3CC[C@@H]4Oc3nc(OC)c(CNC[C@@H]4CCC(=O)N4)cc3Cl)c2Cl)nc(Cl)c1CNC[C@@H]1CCC(=O)N1 [Example 799]
AC50 (PD-L1): 150 nM | IC50 (PD-1/PD-L1): 0.341 nM | EC50 (PD-1/PD-L1 interaction): 167 nM

COc1nc(-c2cccc(-c3cccc4c3CC[C@@H]4Oc3nc(OC)c(CN4CCC[C@H](C(=O)O)[C@@H]4C)cc3Cl)c2Cl)ccc1CNC[C@@H]1CCC(=O)N1 [Example 764]
AC50 (PD-L1): 31.9 nM | IC50 (PD-1/PD-L1): 0.064 nM | EC50 (PD-1/PD-L1 interaction): 23 nM

Cc1c(COc2cc(O)c(CNCCCP(=O)(O)O)cc2Cl)cccc1-c1cccc(COc2cc(OCc3cncc(C#N)c3)c(CNCCCP(=O)(O)O)cc2Cl)c1C [Example 294, (3-((5-chloro-4-((3′-((2-chloro-5-((5-cyanopyridin-3-yl)methoxy)-4-(((3-phosphonopropyl)amino)methyl)phenoxy)methyl)-2,2′-dimethyl-[1,1′-biphenyl]-3-y)methoxy)-2-hydroxybenzyl)amino)propyl)phosphonic acid]
AC50 (PD-L1): 547 nM | IC50 (PD-1/PD-L1): 9.24 nM | EC50 (PD-1/PD-L1 interaction): 714 nM

Cc1c(COc2nc(OCc3cncc(C#N)c3)c(CNCCO)cc2Cl)cccc1-c1cccc(-c2ccc(C(O)CN(C)C)cc2)c1C (stereo not drawn) [Example 306, 5-(((5-chloro-6-((4″-(2-(dimethylamino)-1-hydroxyethyl)-2,2′-dimethyl-[1,1′:3′,1″-terphenyl]-3-yl)methoxy)-3-(((2-hydroxyethyl)amino)methyl)pyridin-2-yl)oxy)methyl)nicotinonitrile]
AC50 (PD-L1): 292 nM | IC50 (PD-1/PD-L1): 1.97 nM | EC50 (PD-1/PD-L1 interaction): 547 nM
